# “And” between values parts separate entries of the source, which are not always exact repeats. Equal entries are not always repeated. “Also recorded” adds a separate entry of the source. Where two headings read alike, the source gives them in different places.
# What was measured:
# [1] = Rapamycin in lung and blood after oropharyngeal aspiration (OPA) and oral gavage, LC-MS/MS; type: in vivo, C57BL/6 mice
# Method: Dosing: Each animal was weighed prior to dosing to determine the amount of dose to be administered. A single gavage dose was administered using a 100-μL glass syringe (Hamilton, Reno, Nev.) fitted with a ball-tipped 20-G stainless steel gavage dosing needle (Popper & Sons Inc., New Hyde Park, N.Y.). The dose administered to each animal was determined from the weight of the full syringe minus that of the empty syringe. The dosing time was recorded. Dosing of animals was spaced apart to allow blood collection at the appropriate times. The dose formulations administered to each group are shown below.
# Each mouse was anesthetized with isoflurane and restrained with the mouth open. The tongue was held to one side of the mouth with forceps, and the dose was slowly injected into the distal part of the oral cavity. The nostrils were covered with a finger for two breaths to ensure aspiration (Rao et al., 2003).
# Collection of Blood and Lung Samples: At study termination (1 or 72 h after dosing), mice were anesthetized by exposure to CO2, and blood was collected by cardiac puncture with dipotassium EDTA as anticoagulant. Lung tissue was excised and divided into the right and left lung. The left lung was used for analysis, and the right lung flash frozen in liquid nitrogen and stored at −70° C. for further analysis.
# Triamcinolone was used as internal standard.
# Lung homogenate was prepared by homogenization of weighed lung samples with 2.8-mm ball bearings in a homogenizer with tissue+deionized water (1:3 w/v) in a SPEX SamplePrep 2010 Geno/Grinder.
# The concentrations of standards were arranged so that each standard came from an alternate stock standard. A six-point calibration curve, each made in triplicate, was employed for analyte quantitation. A simple linear regression model with or without weighting was employed for curve fitting. The concentration range determined was from 1-2000 ng/mL in blood and 2-2000 ng/mL in lung homogenate.
# Thirty (30) μL of matrix, 30 μL of spiking solution (methanol for blanks and samples), 10 μL Internal standard solution (in MeOH) and 90 μL of MeOH were pipetted into microcentrifuge tubes, vortexed briefly, then centrifuged for 6 min at 10,000 RPM at −4° C. Aliquots (90 μL) of supernatant were transferred to LC vial inserts, and then analyzed by LC-MS/MS (Table 2).
# [2] = Observation for adverse effects / clinical signs after dosing; type: in vivo, C57BL/6 mice; details: 1 mg/kg, up to 72 h following dosing
# Method: The oral dose was formulated using pharmaceutical oral liquid formulation Rapamune Oral® (Pfizer). […] An additional group of 6 mice received vehicle only (10% ethanol in water). […] At the 72-h necropsy, blood was obtained by cardiac puncture and the lungs removed.
# The time of dosing was recorded as 0. Animals in groups 2 and 3 were euthanized at 1 h after dosing.
# [3] = tested on: phosphorylated S6 (mTOR pathway); assay: S6 phosphorylation by western blot in AML cells; type: cell-based, human; details: 20 nM, 24 hours
# [4] = tested on: phosphorylated S6 protein (biomarker for mTOR activity); assay: S6 phosphorylation in mouse lung following oral and OPA administration; type: in vivo, C57bl/6 mice
# From the text: To validate this approach, we used the presence of phosphorylated S6 protein in murine lung tissue as a biomarker for mTOR activity. In the mouse strain used (C57b1/6), the mouse airway and alveolar epithelial cells have constitutively active (phosphorylated, “p”) S6 protein. The S6 protein is typically phosphorylated by S6K which is downstream of mTORC1 and is activated, for example downstream of growth factors such as epidermal growth factor (EGF), AKT, ERK, and RSK. mTORC1 promotes cell growth and proliferation by stimulating anabolic processes such as biosynthesis of lipids, proteins, and organelles, and suppressing catabolic processes such as autophagy.
# [5] = tested on: Phospho-S6 Ribosomal Protein (Ser240/244); assay: S6 phosphorylation in rat lung homogenate, western blot (S6-P/total S6); type: in vivo, Sprague-Dawley rats; details: inhalation, target dose 0.354 mg/kg
# Method: Lungs samples from each animal were collected and snap frozen. The individual frozen lung samples were homogenized (Qiagen TissueLyser LT according to manufacturer's protocols) in 1×RIPA Buffer with protease and phosphatase inhibitors. […] The Western blot images were analyzed by NIH image) v1.48 to generate the respective antibody reactivity/intensity and create the ratio of S6 phosphorylation (S6-P) to total S6 intensities for each lung sample. The 56-P/total S6 ratios (y-axis) for sample organized by timepoint group (X-axis) were plotted on a one grouping variable scatter plot vertical graph (GraphPad, version 4.0), all samples in groups are represented by filled in black dots (●) on the graph and average is shown by the horizontal line between the dots within each respective group (FIG. 8B).
# [6] = 28-day repeat daily dose inhalation toxicity and toxicokinetics, dog study 7300227; details: beagle, in vivo
# From the text: For the dog study, a positive flow delivery system (PFDS) consisting of a central plenum and delivery arms was utilized. The central plenum was of modular design with separate ports into which were attached 5 delivery arms fitted with oronasal exposure masks fitted with inlet and outlet tubes. The mask was fitted over the dog's muzzle in such a way that the nose was inside the mask, allowing entrance and exit of air. During exposure, animals wore a harness and were placed on a restraint platform. The harness was attached to two side poles on the platform in order to restrict lateral movement of the dog. The front part of the harness was loosely attached to a hook on the front of the platform to prevent the animal from turning around. […] For each dosing group, one set of animals (N=6) was dosed for 60 minutes each day for 28 consecutive days.
# [7] = Extrapolation of rat and dog inhalation data to human dosing; details: extrapolated
# [8] = Particle size distribution by laser diffraction; type: physicochemical
# Method: For jet milling, a lab scale MCOne unit from Jetpharma was used with the following operating conditions: venturi pressure 2-4 bar, milling pressure 3-5 bar, feed rate 90 g/h. For wet polishing, feed suspensions were prepared using purified water. A microfluidics high pressure homogenizer was used for the size reduction step and the resulting suspension was spray-dried. Details of the wet polishing process are set forth below.
# The high pressure homogenizer used for the size reduction step of the wet polishing process was a pilot-scale Microfluidics High Pressure Homogenizer equipped with an auxiliary processing module (200 micron) and a 100 micron interaction chamber was used. The unit was operated at ˜455 bar (˜30 bar in the intensifier module hydraulic pressure). After microfluidization the fluid was removed by spray drying to generate a dry powder. A laboratory scale spray dryer, SD45 (BÜCHI, model B-290 Advanced) was equipped with a two fluid nozzle (cap and diameter were 1.4 and 0.7 mm, respectively). Two cyclones in series were used (being the first the standard Buchi cyclone and the second the high-performance Buchi cyclone) to collect the dried product. The spray drying unit was operated with nitrogen and in single pass mode, i.e. without recirculation of the drying nitrogen. The aspirator, blowing nitrogen, was set at 100% of its capacity (flow rate at maximum capacity is approximately 40 kg/h). The flow rate of the atomization nitrogen was adjusted to a value in the rotameter of 40±5 mm. Before feeding the product suspension, the spray dryer was stabilized with purified water, during which the flow rate was adjusted to 6 ml/min (20% in the peristaltic pump). The inlet temperature was adjusted to achieve the target outlet temperature (45° C.). After stabilization of the temperatures, the feed of the spray dryer was commuted from purified water to the product suspension (keeping the same flow rate used during stabilization) and the inlet temperature once again adjusted in order to achieve the target outlet temperature. At the end of the stock suspension, the feed was once more commuted to purified water in order to rinse the feed line and perform a controlled shut down. The dry product in the collection flasks under both cyclones was weighed and the yield calculated as the mass percentage of the dry product in relation to the total solids in the suspension fed to the high pressure homogenizer.
# Particle size distribution was analyzed by laser diffraction. Solid state characterization (for polymorphic form and purity) was performed by high pressure liquid chromatography (HPLC), X-ray powder diffraction (XRPD), and differential scanning calorimetry (mDSC). Water content was determined by the Karl Fischer method.
# [9] = IV 10 mg/kg single dose, 24 hours; cited from earlier work
# [10] = 24 hours after 14th dose, cited from earlier work
# [11] = human, Rapamune NDA 21-110 and 21-083; cited from earlier work
# [12] = lymphangioleiomyomatosis patients, McCormack et al. (2011); cited from earlier work
# in vivo = details: Sprague-Dawley, rat
# Method: (§1) A second repeat exposure study was conducted to evaluate the repeat dose toxicity and toxicokinetics of the dry powder formulation administered to SD rats and Beagle dogs for 28 days.
# (§2) For the rat study, standard cylindrical flow-through nose-only inhalation chambers were utilized, as above. […] For each of the three dosing groups, one set of animals (N=36) were dosed for 300 minutes each day for 28 consecutive days. On Study Days 1 and 28, blood samples were taken from animals in subgroups of 6 at the following time points: (1) Predose, (2) Midway dosing, (3) Immediate post dosing, (4) 2 hours post dosing, (5) 4 hours post dosing, (6) 12 hours post dosing and (7) 24 hours post dosing.
# [13] = tested on: TSC2 deficient TRI-AML101 cell line; assay: Cell viability, CellTiter-Glo luminescence assay, 10 point dose response; details: 72 hours after compound addition, relative to DMSO control
# Method: Two thousand cells in 50 uL of growth media (DMEM, 10% FBS, and 1% Penicillin/Streptomycin) were plated per well in a 96 well plate. […] 72 hours after compound addition, relative cell viability was determined by CellTiter-Glo® luminescence assay (Promega) and expressed as a percentage relative to vehicle (DMSO) treated control cells.
# [14] = 28-day repeat daily dose inhalation toxicity and toxicokinetics, rat study 7300225; details: for Max blood levels: rat, average of D28
# Method: as §1, §2
# [15] = 2012 meta-analysis of published trials; cited from earlier work
# [16] = emitted dose 87 ug, repeat inhaled daily dose 35 ug
# [17] = emitted dose 175 ug, repeat inhaled daily dose 70 ug
smiles,measurement,setting,value
CO[C@H]1C[C@@H]2CC[C@@H](C)[C@@](O)(O2)C(=O)C(=O)N2CCCC[C@H]2C(=O)O[C@H]([C@H](C)C[C@@H]2CC[C@@H](O)[C@H](OC)C2)CC(=O)[C@H](C)/C=C(\C)[C@@H](O)[C@@H](OC)C(=O)[C@H](C)C[C@H](C)/C=C/C=C/C=C/1C [Rapamycin],Rapamycin in Blood,"[1]; OPA 1 mg/kg, 72 h",below the limit of quantitation; also recorded: undetectable
same,Blood concentration,"[1]; OPA 1 mg/kg, 72 h post-dose, individual animal",<ELOQ
same,Lung concentration,"[1]; gavage (Rapamune Oral) 1 mg/kg, 1 h post-dose, individual animal, 1 mg/kg",<LOQ
same,rapamycin in lung or blood,"[1]; oral (gavage) 1 mg/kg, 72 hrs",undetectable
same,adverse effects / clinical signs,[2],No adverse effects were observed; also recorded: No significant clinical signs were observed
same,S6 phosphorylation,[3],potently inhibits S6 phosphorylation
same,level of phosphorylated S6 (pS6) in lung,"[4]; 1 mg/kg OPA, 1 hr",reduced substantially
same,level of phosphorylated S6 (pS6) in lung,"[4]; 1 mg/kg OPA, 72 hr",remained suppressed
same,level of phosphorylated S6 (pS6) in lung,"[4]; 1 mg/kg oral gavage, 1 hr",reduced substantially
same,S6 phosphorylation in lung tissue,[5],Inhibits S6 Phosphorylation
same,NOAEL at 28 days,[6],0.0134 mg/kg/day
same,Blood trough levels,[7]; [16],0.15 ng/mL
same,Lung 24 hr trough levels,[7]; [16],2 ng/g
same,Max blood levels,[7]; [16],0.65 ng/mL
same,Blood trough levels,[7]; [17],0.3 ng/mL
same,Lung 24 hr trough levels,[7]; [17],4 ng/g
same,Max blood levels,[7]; [17],1.3 ng/mL
same,PSD Dv10,[8]; jet milling,1.5 μm and 1.51 μm
same,PSD Dv50,[8]; jet milling,2.7 μm and 2.74 μm
same,PSD Dv90,[8]; jet milling,4.9 μm and 4.91 μm
same,PSD Dv10,[8]; wet polishing,1.0 μm and 1.05 μm
same,PSD Dv50,[8]; wet polishing,2.4 μm and 2.42 μm
same,PSD Dv90,[8]; wet polishing,5.0 μm and 4.97 μm
same,Rapamycin in Blood,[9],31 ng/mL
same,Rapamycin in Lung,[9],721 ng/g
same,Rapamycin in Blood,[10]; IV 0.04 mg/kg/day,9.4 ng/mL
same,Rapamycin in Lung,[10]; IV 0.04 mg/kg/day,219 ng/g
same,Rapamycin in Blood,[10]; IV 0.08 mg/kg/day,15.0 ng/mL
same,Rapamycin in Lung,[10]; IV 0.08 mg/kg/day,457 ng/g
same,Rapamycin in Blood,[10]; IV 0.40 mg/kg/day,19.6 ng/mL
same,Rapamycin in Lung,[10]; IV 0.40 mg/kg/day,868 ng/g
same,Rapamycin in Blood,[10]; oral 0.4 mg/kg/day,0.8 ng/mL
same,Rapamycin in Lung,[10]; oral 0.4 mg/kg/day,42 ng/g
same,Rapamycin in Blood,[10]; oral 0.8 mg/kg/day,2.1 ng/mL
same,Rapamycin in Lung,[10]; oral 0.8 mg/kg/day,59 ng/g
same,clearance,[11],0.0003 min⁻¹
same,blood concentrations,[12],5 to 15 ng/mL
same,NOAEL at 28 days,in vivo,8.91 mg/kg/day
same,lowest concentration inhibiting viability,[13],0.05 nM
same,respiratory function,[14]; nose-only inhalation,no changes in respiratory function
same,Max blood levels,"[14]; emitted dose 50 ug, repeat inhaled daily dose 5 ug",7.6 ng/mL
same,Max blood levels,"[14]; emitted dose 1425 ug, repeat inhaled daily dose 143 ug",70.5 ng/mL
same,Max blood levels,"[14]; emitted dose 2850 ug, repeat inhaled daily dose 285 ug",77.8 ng/mL
CO[C@H]1C[C@@H]2CC[C@@H](C)[C@@](O)(O2)C(=O)C(=O)N2CCCC[C@H]2C(=O)O[C@H]([C@H](C)C[C@@H]2CC[C@@H](OCCO)[C@H](OC)C2)CC(=O)[C@H](C)/C=C(\C)[C@@H](O)[C@@H](OC)C(=O)[C@H](C)C[C@H](C)/C=C/C=C/C=C/1C [everolimus],cancer patients experiencing mild grade pulmonary toxicity,[15],10%
CO[C@H]1C[C@@H]2CC[C@@H](C)[C@@](O)(O2)C(=O)C(=O)N2CCCC[C@H]2C(=O)O[C@H]([C@H](C)C[C@@H]2CC[C@@H](OC(=O)C(C)(CO)CO)[C@H](OC)C2)CC(=O)[C@H](C)/C=C(\C)[C@@H](O)[C@@H](OC)C(=O)[C@H](C)C[C@H](C)/C=C/C=C/C=C/1C [temsirolimus],cancer patients experiencing mild grade pulmonary toxicity,[15],10%

# From patent US12611398B2 (ORPHAI THERAPEUTICS INC., priority 2014, dated 2026)
